{"source": "patent US5879659A", "about": "“Ternary radiopharmaceutical complexes” (DuPont Pharmaceuticals Company, priority 1997, dated 1999)", "system": "thrombi", "test": "Canine Arteriovenous Shunt model", "type": "in vivo, dog", "conditions": "first 1 hour shunt period, 150 μCi/kg, i.v.", "procedure": "Canine Arteriovenous Shunt Model: Adult mongrel dogs of either sex (9-13 kg) were anesthetized with pentobarbital sodium (35 mg/kg,i.v.) and ventilated with room air via an endotracheal tube (12 strokes/min, 25 ml/kg). For arterial pressure determination, the left carotid artery was cannulated with a saline-filled polyethylene catheter (PE-240) and connected to a Statham pressure transducer (P23ID; Oxnard, Calif.). Mean arterial blood pressure was determined via damping the pulsatile pressure signal. Heart rate was monitored using a cardiotachometer (Biotach, Grass Quincy, Mass.) triggered from a lead II electrocardiogram generated by limb leads. A jugular vein was cannulated (PE-240) for drug administration. The both femoral arteries and femoral veins were cannulated with silicon treated (Sigmacote, Sigma Chemical Co. St Louis, Mo.), saline filled polyethylene tubing (PE-200) and connected with a 5 cm section of silicon treated tubing (PE-240) to form an extracorporeal arterio-venous shunts (A-V). Shunt patency was monitored using a doppler flow system (model VF-1, Crystal Biotech Inc, Hopkinton, Mass.) and flow probe (2-2.3 mm, Titronics Med. Inst., Iowa City, Iowa) placed proximal to the locus of the shunt. All parameters were monitored continuously on a polygraph recorder (model 7D Grass) at a paper speed of 10 mm/min or 25 mm/sec.\nOn completion of a 15 min post surgical stabilization period, an occlusive thrombus was formed by the introduction of a thrombogenic surface (4-0 braided silk thread, 5 cm in length, Ethicon Inc., Somerville, N.J.) into the shunt one shunt with the other serving as a control. Two consecutive 1 hr shunt periods were employed with the test agent administered as an infusion over 5 min beginning 5 min before insertion of the thrombogenic surface. At the end of each 1 hr shunt period the silk was carefully removed and weighed and the % incorporation determined via well counting. Thrombus weight was calculated by subtracting the weight of the silk prior to placement from the total weight of the silk on removal from the shunt. […]", "data": [{"substance": "^99m Tc(tricine) (tris(1-pyrazolyl)borohydride)-Cyclo(D-Val-NMeArg-Gly-Asp-Mamb(hydrazino-nicotinyl-5-Aca)) [Example 1]", "values": [{"measurement": "uptake in thrombi compared with positive control (In-111-platelets) and negative controls (Tc-99m-albumin, I-125-fibrinogen)", "setting": "mixed arterial and venous conditions", "value": "taken up in thrombi under both mixed arterial and venous conditions equivalently to the positive control and to a significantly greater extent than the negative controls"}, {"measurement": "thrombus-to-blood ratio (target-to-background ratio)", "setting": "mixed arterial conditions", "value": 114}, {"measurement": "thrombus-to-blood ratio (target-to-background ratio)", "setting": "venous conditions", "value": 3.1}]}]}
